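A five-concentration, 48-hour dose response in 96-well plates underlies each endpoint, interpolated linearly between surrounding concentrations. GI50: concentration for 50% inhibition of growth. The concentration for full growth arrest is given as TGI.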
What was measured:
Test in all cases: NCI tumour cell line growth inhibition, 48 h
RXF 393 renal = tested on: RXF 393 renal
MOLT-4 leukemia = tested on: MOLT-4 leukemia
786-0 renal = tested on: 786-0 renal
HT29 colon = tested on: HT29 colon
OVCAR-8 ovarian = tested on: OVCAR-8 ovarian
COLO 205 colon = tested on: COLO 205 colon
HOP-92 NSCLC = tested on: HOP-92 NSCLC
OVCAR-5 ovarian = tested on: OVCAR-5 ovarian
NCI-H460 lung = tested on: NCI-H460 lung
HCT-116 colon = tested on: HCT-116 colon
OVCAR-3 ovarian = tested on: OVCAR-3 ovarian
LOX IMVI melanoma = tested on: LOX IMVI melanoma
TK-10 renal = tested on: TK-10 renal
SK-MEL-5 melanoma = tested on: SK-MEL-5 melanoma
EKVX NSCLC = tested on: EKVX NSCLC
UACC-62 melanoma = tested on: UACC-62 melanoma
SK-MEL-28 melanoma = tested on: SK-MEL-28 melanoma
U251 CNS = tested on: U251 CNS
NCI/ADR-RES ovarian = tested on: NCI/ADR-RES ovarian
MDA-MB-231 breast = tested on: MDA-MB-231 breast
CAKI-1 renal = tested on: CAKI-1 renal
SF-295 CNS = tested on: SF-295 CNS
IGROV1 ovarian = tested on: IGROV1 ovarian
ACHN renal = tested on: ACHN renal
SF-539 CNS = tested on: SF-539 CNS
A549 NSCLC = tested on: A549 NSCLC
HS 578T breast = tested on: HS 578T breast
SN12C renal = tested on: SN12C renal
SF-268 CNS = tested on: SF-268 CNS
A498 renal = tested on: A498 renal
M14 melanoma = tested on: M14 melanoma
HOP-62 NSCLC = tested on: HOP-62 NSCLC
KM12 colon = tested on: KM12 colon
UACC-257 melanoma = tested on: UACC-257 melanoma
HCT-15 colon = tested on: HCT-15 colon
UO-31 renal = tested on: UO-31 renal
SNB-75 CNS = tested on: SNB-75 CNS
HCC-2998 colon = tested on: HCC-2998 colon
BT-549 breast = tested on: BT-549 breast
SK-OV-3 ovarian = tested on: SK-OV-3 ovarian
MALME-3M melanoma = tested on: MALME-3M melanoma
T-47D breast = tested on: T-47D breast
OVCAR-4 ovarian = tested on: OVCAR-4 ovarian
NCI-H226 lung = tested on: NCI-H226 lung
NCI-H522 lung = tested on: NCI-H522 lung
MDA-MB-435 = tested on: MDA-MB-435
SW-620 colon = tested on: SW-620 colon
HL-60(TB) leukemia = tested on: HL-60(TB) leukemia
SR leukemia = tested on: SR leukemia
SK-MEL-2 melanoma = tested on: SK-MEL-2 melanoma
SNB-19 CNS = tested on: SNB-19 CNS
K-562 leukemia = tested on: K-562 leukemia
PC-3 prostate = tested on: PC-3 prostate

**Q.** What does the source list for `OC1CCN(CCCOc2c3ccc(Cl)cc3nc3c2oc2ccc(Cl)cc23)CC1`?
**A.** GI50 (RXF 393 renal): 1.24 µM; TGI (RXF 393 renal): 2.52 µM; GI50 (MOLT-4 leukemia): 0.443 µM; TGI (MOLT-4 leukemia): 1.96 µM; GI50 (786-0 renal): 1.13 µM; TGI (786-0 renal): 2.49 µM; GI50 (HT29 colon): 0.505 µM; TGI (HT29 colon): 1.77 µM; GI50 (OVCAR-8 ovarian): 1.54 µM; TGI (OVCAR-8 ovarian): 18.9 µM; GI50 (COLO 205 colon): 1.16 µM; TGI (COLO 205 colon): 3.18 µM; GI50 (HOP-92 NSCLC): 0.588 µM; TGI (HOP-92 NSCLC): 6.77 µM; GI50 (OVCAR-5 ovarian): 1.38 µM; TGI (OVCAR-5 ovarian): 2.85 µM; GI50 (NCI-H460 lung): 0.465 µM; TGI (NCI-H460 lung): 1.99 µM; GI50 (HCT-116 colon): 0.417 µM; TGI (HCT-116 colon): 1.59 µM; GI50 (OVCAR-3 ovarian): 1.56 µM; TGI (OVCAR-3 ovarian): 4.12 µM; GI50 (LOX IMVI melanoma): 0.298 µM; TGI (LOX IMVI melanoma): 1.42 µM; GI50 (TK-10 renal): 3.05 µM; TGI (TK-10 renal): 8.4 µM; GI50 (SK-MEL-5 melanoma): 2.23 µM; TGI (SK-MEL-5 melanoma): 5.03 µM; GI50 (EKVX NSCLC): 2.84 µM; TGI (EKVX NSCLC): 13.2 µM; GI50 (UACC-62 melanoma): 1.83 µM; TGI (UACC-62 melanoma): 3.78 µM; GI50 (SK-MEL-28 melanoma): 1.77 µM; TGI (SK-MEL-28 melanoma): 3.18 µM; GI50 (U251 CNS): 0.876 µM; TGI (U251 CNS): 2.27 µM; GI50 (NCI/ADR-RES ovarian): 0.718 µM; TGI (NCI/ADR-RES ovarian): 2.77 µM; GI50 (MDA-MB-231 breast): 1.26 µM; TGI (MDA-MB-231 breast): 2.87 µM; GI50 (CAKI-1 renal): 0.877 µM; TGI (CAKI-1 renal): 2.12 µM; GI50 (SF-295 CNS): 3.02 µM; TGI (SF-295 CNS): 15.8 µM; GI50 (IGROV1 ovarian): 1.71 µM; TGI (IGROV1 ovarian): 15 µM; GI50 (ACHN renal): 0.504 µM; TGI (ACHN renal): 1.69 µM; GI50 (SF-539 CNS): 1.36 µM; TGI (SF-539 CNS): 2.67 µM; GI50 (A549 NSCLC): 1.05 µM; TGI (A549 NSCLC): 2.5 µM; GI50 (HS 578T breast): 2.75 µM; TGI (HS 578T breast): 17.2 µM; GI50 (SN12C renal): 0.864 µM; TGI (SN12C renal): 2.38 µM; GI50 (SF-268 CNS): 1.15 µM; TGI (SF-268 CNS): 4.5 µM; GI50 (A498 renal): 6.74 µM; TGI (A498 renal): 21.1 µM; GI50 (M14 melanoma): 1.43 µM; TGI (M14 melanoma): 2.84 µM; GI50 (HOP-62 NSCLC): 1.85 µM; TGI (HOP-62 NSCLC): 12.5 µM; GI50 (KM12 colon): 1.06 µM; TGI (KM12 colon): 3.61 µM; GI50 (UACC-257 melanoma): 1.79 µM; TGI (UACC-257 melanoma): 3.68 µM; GI50 (HCT-15 colon): 0.518 µM; TGI (HCT-15 colon): 2.07 µM; GI50 (UO-31 renal): 0.768 µM; TGI (UO-31 renal): 2.17 µM; GI50 (SNB-75 CNS): 2.85 µM; TGI (SNB-75 CNS): 16.3 µM; GI50 (HCC-2998 colon): 0.868 µM; TGI (HCC-2998 colon): 15.8 µM; GI50 (BT-549 breast): 4.51 µM; TGI (BT-549 breast): 18.9 µM; GI50 (SK-OV-3 ovarian): 3.37 µM; TGI (SK-OV-3 ovarian): 15.5 µM; GI50 (MALME-3M melanoma): 1.73 µM; TGI (MALME-3M melanoma): 3.48 µM; GI50 (T-47D breast): 5.77 µM; TGI (T-47D breast): 36.5 µM; GI50 (OVCAR-4 ovarian): 1.24 µM; TGI (OVCAR-4 ovarian): 2.79 µM; GI50 (NCI-H226 lung): 1.67 µM; TGI (NCI-H226 lung): 4.13 µM; GI50 (NCI-H522 lung): 1.8 µM; TGI (NCI-H522 lung): 11.1 µM; GI50 (MDA-MB-435): 1.34 µM; TGI (MDA-MB-435): 2.7 µM; GI50 (SW-620 colon): 0.455 µM; TGI (SW-620 colon): 1.79 µM; GI50 (HL-60(TB) leukemia): 1.48 µM; TGI (HL-60(TB) leukemia): 3.23 µM; GI50 (SR leukemia): 0.595 µM; TGI (SR leukemia): 2.62 µM; GI50 (SK-MEL-2 melanoma): 5.32 µM; TGI (SK-MEL-2 melanoma): 17.7 µM; GI50 (SNB-19 CNS): 1.45 µM; TGI (SNB-19 CNS): 3.22 µM; GI50 (K-562 leukemia): 0.417 µM; TGI (K-562 leukemia): 1.93 µM; GI50 (PC-3 prostate): 1.23 µM; TGI (PC-3 prostate): 2.55 µM

Source: PubChem BioAssay (NCI)
